The target in this assay is T1, ITK (Jurkat or Molt4 cells) (Homo sapiens, UniProt Q08881).
T1 construct: either human Jurkat (Clone E6-1 ATCC TIB-152) or Motl4 (ATCC CRL-1552), were plated; endogenous in cells; host or cells: Jurkat Clone E6-1 (ATCC TIB-152) or Molt4 (ATCC CRL-1552)
T1 sequence (Q08881 1-620): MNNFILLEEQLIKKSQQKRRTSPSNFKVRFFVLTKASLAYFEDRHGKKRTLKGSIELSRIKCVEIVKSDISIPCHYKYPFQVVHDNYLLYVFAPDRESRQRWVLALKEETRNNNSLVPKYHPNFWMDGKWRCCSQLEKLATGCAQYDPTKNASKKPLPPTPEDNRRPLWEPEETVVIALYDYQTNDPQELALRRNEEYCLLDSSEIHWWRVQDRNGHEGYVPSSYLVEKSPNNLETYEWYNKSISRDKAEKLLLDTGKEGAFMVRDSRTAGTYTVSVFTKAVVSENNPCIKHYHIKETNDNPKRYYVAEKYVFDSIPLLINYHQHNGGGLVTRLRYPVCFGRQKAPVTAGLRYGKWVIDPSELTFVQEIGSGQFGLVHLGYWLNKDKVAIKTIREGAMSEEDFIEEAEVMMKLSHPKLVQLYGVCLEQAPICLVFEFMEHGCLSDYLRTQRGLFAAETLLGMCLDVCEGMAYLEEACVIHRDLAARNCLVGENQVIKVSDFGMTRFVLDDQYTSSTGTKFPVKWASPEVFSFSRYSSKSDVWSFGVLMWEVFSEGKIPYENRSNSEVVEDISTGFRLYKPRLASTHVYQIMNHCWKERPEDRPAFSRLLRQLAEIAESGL
The experiment in a line: ITK Degradation MSD (Meso Scale Discovery) Assay. The class given is cell-based. The note with it: 4 or 6 hrs incubation; for DC50: best fit IC50 used as DC50. On the procedure:
Compound dilution series (7-point, 5-fold dilutions in DMSO, rows B—H with replicate in Column 1/2, 3/4, 5/6, 7, and 8 at 2000× the final required concentrations were prepared in 96-well plate (Falcon, cat. no. 353077). Row A, Column 1-8 were control DMSO. The 2000× solutions ranged from 2 mM to 128 nM (final assay concentration range 1 μM to […]). The 2000×solutions were added to cells in 10 μL volume, for a final DMSO concentration of 0.5% and final assay compound concentration of 1×. For the cells, either human Jurkat (Clone E6-1 ATCC TIB-152) or Motl4 (ATCC CRL-1552), were plated at 1×10^6 cells/mL, 100 μL/well ([…]) in complete RPMI (10% FBS, 1% L-glutamine). The cells were incubated with compounds 26-29 for 4 or 6 hrs at 32° C./6% CO2.
Following incubation, plates were centrifuged at 1200 rpm for 5 min. Supernatant was removed and 50 μL of cell lysis buffer (MSD Tris lysis buffer (R60TX), complete Mini EDTA-free protease inhibitor (Sigma 11836170001), Protease Inhibitor Cocktail (Sigma, P2714), Phosphatase Inhibitor Cocktail 2 and 3 (Sigma, P5726 and P0044), Benzonase (Sigma, E1014)) was added to each well. Plate was sealed and shook at 4° C. for 30 min. Plate was centrifuged and 45 μL was removed for plate assay.
Assay plate preparation: Meso Scale Discovery (MSD) multi-array sm spot 96-well plates (Goat anti-Rabbit L^45-RA), were blocked with 3% BSA blocking buffer (3% Bovine Serum Albumin (Sigma A3059)+TBS 0.2% Tween-20) for one hour with gentle rocking at room temperature. Plate was then washed with 200 μL of 1×TBST (TBS 0.2% Tween-20) three times. After the last wash, all liquid was removed and 50 μL per well of capture antibody (abcam ITK Y402-ab32507) was added to plate at a 1:1000 dilution in blocking buffer (see above). Plate was sealed and rocked at room temperature for 2 hrs. Plate was then washed three times with 200 μL of 1×TBST. After the last wash, all liquid was removed and 45 μL of cell lysate (from above) was added to plate. Plate was sealed and rocked overnight at 4° C. The next day, cell lysates were removed, and assay plate was washed three times with 200 μL of 1×TBST. After the last wash, liquid was removed and detection antibody (CST ITK (2F12) #2380) was added at 50 μL per well at a dilution of 1:1000 in blocking buffer. Plate was sealed and rocked at room temperature for 2 hrs. Plate was washed three times with 200 μL of 1×TBST. After the last wash, all liquid was removed, MSD […] sulfo tag (R32AC-1) was diluted to 1:1000 in blocking buffer. 50 μL was added to each well on the plate. Plate was sealed and incubated at room temperature for one hour. Plate was washed three times with 200 μL of 1×TBST. After last wash, all liquid was removed and 150 μL of 1×MSD Read Buffer T (R92PC) was then added to each well for ECL read out.
For reading ECL signal, plate was read on a Meso Scale Discovery (MSD) MESO Sector S 600 plate reader. Percent ITK was then calculated as described below.
Percent ITK remaining per sample was calculated as follows: […]
Using Graphpad Prism, % ITK remaining values were plotted as a function of compound concentration. To determine DC50 and Dmax values, resulting curves were fit to the Prism curve-fitting equation “log(inhibitor) vs response−Variable slope (four parameters)” (reported best fit value IC50 used as DC50).

As usually defined, the DC50 is the concentration giving 50% degradation. A higher DC50 goes with a less potent degrader. The term Dmax denotes the greatest extent of degradation seen. Higher therefore signals deep degradation.

`CN[C@@H](C)C(=O)N[C@H](C(=O)N1CCC[C@H]1c1nc(C(=O)c2cccc(OCCOCCN3CC([C@@H](c4ccccc4)n4cc(NC(=O)c5n[nH]c6c5C[C@@H]5C(F)(F)[C@]5(C)C6)cn4)C3)c2)cs1)C1CCCCC1` [Compound 11, (4aS,5aR)—N-(1-((S)-(1-(2-(2-(3-(2-((S)-1-((S)-2-cyclohexyl-2-((S)-2-(methylamino)propanamido)acetyl)pyrrolidin-2-yl)thiazole-4-carbonyl)phenoxy)ethoxy)ethyl)azetidin-3-yl)(phenyl)methyl)-1H-pyrazol-4-yl)-5,5-difluoro-5a-methyl-1,4,4a,5,5a,6-hexahydrocyclopropa[f]indazole-3-carboxamide] gave a DC50 of 10.7 nM.
Same read-out and setting: the figure for `Cc1ncsc1-c1ccc(CNC(=O)[C@@H]2C[C@@H](O)CN2C(=O)[C@@H](NC(=O)CCOCCOCCOCCOCCN2CC([C@@H](c3ccccc3)n3cc(NC(=O)c4n[nH]c5c4C[C@@H]4C(F)(F)[C@]4(C)C5)cn3)C2)C(C)(C)C)cc1` [Compound 12, (4aS,5aR)-5,5-difluoro-N-(1-((S)-(1-((S)-17-((2S,4R)-4-hydroxy-2-((4-(4-methylthiazol-5-yl)benzyl)carbamoyl)pyrrolidine-1-carbonyl)-18,18-dimethyl-15-oxo-3,6,9,12-tetraoxa-16-azanonadecyl)azetidin-3-yl)(phenyl)methyl)-1H-pyrazol-4-yl)-5a-methyl-1,4,4a,5,5a,6-hexahydrocyclopropa[f]indazole-3-carboxamide] is 114 nM.
Same read-out and setting: the figure for `Cc1ncsc1-c1ccc(CNC(=O)[C@@H]2C[C@@H](O)CN2C(=O)[C@@H](NC(=O)CCOCCOCCOCCOCCOCCOCCC(=O)N2CC([C@@H](c3ccccc3)n3cc(NC(=O)c4n[nH]c5c4C[C@@H]4C(F)(F)[C@]4(C)C5)cn3)C2)C(C)(C)C)cc1` [Compound 14, (4aS,5aR)-5,5-difluoro-N-(1-((S)-(1-((S)-24-((2S,4R)-4-hydroxy-2-((4-(4-methylthiazol-5-yl)benzyl)carbamoyl)pyrrolidine-1-carbonyl)-25,25-dimethyl-22-oxo-4,7,10,13,16,19-hexaoxa-23-azahexacosanoyl)azetidin-3-yl)(phenyl)methyl)-1H-pyrazol-4-yl)-5a-methyl-1,4,4a,5,5a,6-hexahydrocyclopropa[f]indazole-3-carboxamide] is 134 nM; for `Cc1ncsc1-c1ccc(CNC(=O)[C@@H]2C[C@@H](O)CN2C(=O)[C@@H](NC(=O)CCOCCOCCOCCC(=O)N2CC([C@@H](c3ccccc3)n3cc(NC(=O)c4n[nH]c5c4C[C@@H]4C(F)(F)[C@]4(C)C5)cn3)C2)C(C)(C)C)cc1` [Compound 15, (4aS,5aR)-5,5-difluoro-N-(1-((S)-(1-((S)-15-((2S,4R)-4-hydroxy-2-((4-(4-methylthiazol-5-yl)benzyl)carbamoyl)pyrrolidine-1-carbonyl)-16,16-dimethyl-13-oxo-4,7,10-trioxa-14-azaheptadecanoyl)azetidin-3-yl)(phenyl)methyl)-1H-pyrazol-4-yl)-5a-methyl-1,4,4a,5,5a,6-hexahydrocyclopropa[f]indazole-3-carboxamide] it is 54.7 nM; for `Cc1ncsc1-c1ccc(CNC(=O)[C@@H]2C[C@@H](O)CN2C(=O)[C@@H](NC(=O)CCOCCC(=O)N2CC([C@@H](c3ccccc3)n3cc(NC(=O)c4n[nH]c5c4C[C@@H]4C(F)(F)[C@]4(C)C5)cn3)C2)C(C)(C)C)cc1` [Compound 16, (4aS,5aR)-5,5-difluoro-N-(1-((S)-(1-(3-(3-(((S)-1-((2S,4R)-4-hydroxy-2-((4-(4-methylthiazol-5-yl)benzyl)carbamoyl)pyrrolidin-1-yl)-3,3-dimethyl-1-oxobutan-2-yl)amino)-3-oxopropoxy)propanoyl)azetidin-3-yl)(phenyl)methyl)-1H-pyrazol-4-yl)-5a-methyl-1,4,4a,5,5a,6-hexahydrocyclopropafindazole-3-carboxamide] it is 479 nM.
For the molecule `Cc1ncsc1-c1ccc(CNC(=O)[C@@H]2C[C@@H](O)CN2C(=O)[C@@H](NC(=O)C2(F)CC2)C(C)(C)C)c(OCCOCCOCCOCCC(=O)N2CC([C@@H](c3ccccc3)n3cc(NC(=O)c4n[nH]c5c4C[C@@H]4C(F)(F)[C@]4(C)C5)cn3)C2)c1` [Compound 19, (4aS,5aR)-5,5-difluoro-N-(1-((S)-(1-(3-(2-(2-(2-(2-(((2S,4R)-1-((S)-2-(1-fluorocyclopropane-1-carboxamido)-3,3-dimethylbutanoyl)-4-hydroxypyrrolidine-2-carboxamido)methyl)-5-(4-methylthiazol-5-yl)phenoxy)ethoxy)ethoxy)ethoxy)propanoyl)azetidin-3-yl)(phenyl)methyl)-1H-pyrazol-4-yl)-5a-methyl-1,4,4a,5,5a,6-hexahydrocyclopropa[f]indazole-3-carboxamide], the Dmax came to 95.9% and half-maximal degradation (DC50) was put at 2.6 nM.
For `Cc1ncsc1-c1ccc(CNC(=O)[C@@H]2C[C@@H](O)CN2C(=O)[C@@H](NC(=O)C2(F)CC2)C(C)(C)C)c(OCCCCCCCC(=O)N2CC([C@@H](c3ccccc3)n3cc(NC(=O)c4n[nH]c5c4C[C@@H]4C(F)(F)[C@]4(C)C5)cn3)C2)c1` [Compound 20, (4aS,5aR)-5,5-difluoro-N-(1-((S)-(1-(8-(2-(((2S,4R)-1-((S)-2-(1-fluorocyclopropane-1-carboxamido)-3,3-dimethylbutanoyl)-4-hydroxypyrrolidine-2-carboxamido)methyl)-5-(4-methylthiazol-5-yl)phenoxy)octanoyl)azetidin-3-yl)(phenyl)methyl)-1H-pyrazol-4-yl)-5a-methyl-1,4,4a,5,5a,6-hexahydrocyclopropa[f]indazole-3-carboxamide] the same measures were 94.6% and 1.27 nM.
On the same counts, the results for `Cc1ncsc1-c1ccc([C@H](C)NC(=O)[C@@H]2C[C@@H](O)CN2C(=O)[C@@H](NC(=O)c2ncc(N3CCC(C(=O)N4CC([C@@H](c5ccccc5)n5cc(NC(=O)c6n[nH]c7c6C[C@@H]6C(F)(F)[C@]6(C)C7)cn5)C4)CC3)cn2)C(C)(C)C)cc1` [Compound 21, (4aS,5aR)-5,5-difluoro-N-(1-((S)-(1-(1-(2-(((S)-1-((2S,4R)-4-hydroxy-2-(((S)-1-(4-(4-methylthiazol-5-yl)phenyl)ethyl)carbamoyl)pyrrolidin-1-yl)-3,3-dimethyl-1-oxobutan-2-yl)carbamoyl)pyrimidin-5-yl)piperidine-4-carbonyl)azetidin-3-yl)(phenyl)methyl)-1H-pyrazol-4-yl)-5a-methyl-1,4,4a,5,5a,6-hexahydrocyclopropa[f]indazole-3-carboxamide] are 95% and 64.7 nM.
